Measured values published in ChEMBL document CHEMBL5608163, “Structure modification of anoplin for fighting resistant bacteria” (Eur J Med Chem, 2024).
≈ marks a conversion by molar mass, not a printed value. Square brackets hold non-standard residues; d marks the D form. Peptide text beside a SMILES is read from it. * marks the point of attachment. Heptadecanoyl = CCCCCCCCCCCCCCCCC(=O)*; 2Nal = N[C@@H](Cc1ccc2ccccc2c1)C(=O)O; Cha = N[C@@H](CC1CCCCC1)C(=O)O

Legend:
Klebsiella pneumoniae = test: Antibacterial activity against Klebsiella pneumoniae ATCC 700603 assessed as reduction in bacterial growth measured after 18 to 24 hrs by CLSI protocol-based Mueller-Hinton broth dilution method; assay type: functional; conditions: time 18-24 hrs
Pseudomonas aeruginosa [1] = test: Antibacterial activity against multi-drug resistant Pseudomonas aeruginosa clinical isolate 119 assessed as reduction in bacterial growth measured after 18 to 24 hrs by CLSI protocol-based Mueller-Hinton broth dilution method; assay type: functional; conditions: time 18-24 hrs
Bacillus subtilis = test: Antibacterial activity against Bacillus subtilis ATCC 23857 assessed as reduction in bacterial growth measured after 18 to 24 hrs by CLSI protocol-based Mueller-Hinton broth dilution method; assay type: functional; conditions: time 18-24 hrs
Escherichia coli [2] = test: Antibacterial activity against multi-drug resistant Escherichia coli clinical isolate 850 assessed as reduction in bacterial growth measured after 18 to 24 hrs by CLSI protocol-based Mueller-Hinton broth dilution method; assay type: functional; conditions: time 18-24 hrs
Staphylococcus aureus [3] = test: Antibacterial activity against Staphylococcus aureus ATCC 25923 assessed as reduction in bacterial growth measured after 18 to 24 hrs by CLSI protocol-based Mueller-Hinton broth dilution method; assay type: functional; conditions: time 18-24 hrs
Acinetobacter baumannii = test: Antibacterial activity against multi-drug resistant Acinetobacter baumannii clinical isolate 9840 assessed as reduction in bacterial growth measured after 18 to 24 hrs by CLSI protocol-based Mueller-Hinton broth dilution method; assay type: functional; conditions: time 18-24 hrs
Escherichia coli [4] = test: Antibacterial activity against Escherichia coli ATCC 25922 assessed as reduction in bacterial growth incubated for 18 to 20 hrs by Mueller Hinton broth dilution method; assay type: functional; conditions: time 18-20 hrs
Staphylococcus aureus [5] = test: Antibacterial activity against methicillin resistant Staphylococcus aureus ATCC 33591 assessed as inhibition of bacterial growth incubated for 16 to 20 hrs by broth micro-dilution method; assay type: functional; conditions: time 16-20 hrs
Enterococcus faecium [6] = test: Antibacterial activity against Vancomycin resistant Enterococcus faecium ATCC 700221 assessed as inhibition of bacterial growth incubated for 16 to 20 hrs by broth micro-dilution method; assay type: functional; conditions: time 16-20 hrs
Escherichia coli [7] = test: Antibacterial activity against Escherichia coli ATCC 25922 assessed as reduction in bacterial growth incubated for 18 to 24 hrs by broth microdilution method; assay type: functional; conditions: time 18-24 hrs
Staphylococcus aureus [8] = test: Antibacterial activity against methicillin-resistant Staphylococcus aureus ATCC 33591 assessed as reduction in bacterial growth incubated for 16 to 24 hrs by agar dilution method; assay type: functional; conditions: time 16-24 hrs
[9] = Hemolytic activity in human RBC; assay type: toxicity, cell-based, Erythrocyte; conditions: red blood cells
Enterococcus faecium [10] = test: Antibacterial activity against vancomycin resistant Enterococcus faecium NCTC 12204 assessed as reduction in bacterial growth by microdilution broth method; assay type: functional
[11] = Hemolytic activity against Red blood cells (unknown origin) incubated for 1 hr by spectrophotometric analysis; assay type: toxicity, cell-based, Erythrocyte
Pseudomonas aeruginosa [12] = test: Antibacterial activity against Pseudomonas aeruginosa ATCC 15442 assessed as reduction in bacterial cell growth incubated for 18 to 24 hrs by two fold serial microdilution method; assay type: functional; conditions: time 18-24 hrs
Escherichia coli [13] = test: Antibacterial activity against Escherichia coli ATCC 25922 assessed as reduction in bacterial growth incubated for 48 hrs by Mueller-Hinton broth based microdilution method; assay type: functional
Staphylococcus aureus [14] = test: Antibacterial activity against Staphylococcus aureus ATCC 25923 assessed as reduction in bacterial growth incubated for 48 hrs by Mueller-Hinton broth based microdilution method; assay type: functional

CC[C@H](C)[C@H](NC(=O)[C@H](CCCNC(=N)N)NC(=O)[C@@H](CCCCN)NC(=O)[C@H](CC(C)C)NC(=O)[C@H](CC(C)C)NC(=O)CNC(C)=O)C(=O)N[C@H](CCCCN)C(=O)N[C@H](C(=O)N[C@@H](CC(C)C)C(=O)N[C@@H](CC(C)C)C(=O)NC(Cc1cn(CCCC[C@H](NC(C)=O)C(=O)NCC(=O)N[C@@H](CC(C)C)C(=O)N[C@@H](CC(C)C)C(=O)N[C@@H](CCCCN)C(=O)N[C@H](CCCNC(=N)N)C(=O)N[C@H](C(=O)N[C@H](CCCCN)C(=O)N[C@H](C(=O)N[C@@H](CC(C)C)C(=O)N[C@@H](CC(C)C)C(N)=O)[C@@H](C)O)[C@@H](C)CC)nn1)C(N)=O)[C@@H](C)O (stereo not given in full)
MIC (Klebsiella pneumoniae): 16 µM (≈ 42.2 µg/mL)
MIC (Pseudomonas aeruginosa [1]): 16 µM (≈ 42.2 µg/mL)
MIC (Bacillus subtilis): 4 µM (≈ 10.6 µg/mL)
MIC (Escherichia coli [2]): 16 µM (≈ 42.2 µg/mL)
MIC (Staphylococcus aureus [3]): 128 µM (≈ 338 µg/mL)
MIC (Acinetobacter baumannii): 8 µM (≈ 21.1 µg/mL)

CC(C)C[C@H](NC(=O)CN)C(=O)N[C@@H](CC(C)C)C(=O)N[C@@H](CCCCN)C(=O)N[C@@H](CCCCN)C(=O)N[C@@H](Cc1ccc2ccccc2c1)C(=O)N[C@@H](CCCCN)C(=O)N[C@@H](CCCCN)C(=O)N[C@@H](CC(C)C)C(=O)N[C@@H](CC1CCCCC1)C(N)=O (H-GLLKK[2Nal]KKL[Cha]-NH2)
MIC (Escherichia coli [4]): 16 µM (≈ 20.4 µg/mL)
MIC (Staphylococcus aureus [5]): 9.5 µM (≈ 12.1 µg/mL)
MIC (Enterococcus faecium [6]): 3.2 µM (≈ 4.09 µg/mL)

CC(C)C[C@H](NC(=O)[C@H](CC(C)C)NC(=O)[C@@H](NC(=O)[C@H](CCCCN)NC(=O)[C@H](Cc1ccc2ccccc2c1)NC(=O)[C@H](CCCCN)NC(=O)[C@H](CCCCN)NC(=O)[C@H](CC(C)C)NC(=O)[C@H](CC1CCCCC1)NC(=O)CN)[C@@H](C)O)C(N)=O (H-G[Cha]LKK[2Nal]KTLL-NH2)
MIC (Escherichia coli [7]): 9.5 µM (≈ 11.9 µg/mL)
MIC (Staphylococcus aureus [8]): 28.4 µM (≈ 35.5 µg/mL)
HC50 [9]: 15.3 µM
MIC (Enterococcus faecium [10]): 9.5 µM (≈ 11.9 µg/mL)
HC50 at 1 h [11]: 15.3 µM
MIC (Pseudomonas aeruginosa [12]): 9.5 µM (≈ 11.9 µg/mL)

CCCCCCCCCCCCCCCCC(=O)NCC(=O)N[C@@H](CC(C)C)C(=O)N[C@@H](CC(C)C)C(=O)N[C@@H](CCCCN)C(=O)N[C@@H](CCCNC(=N)N)C(=O)N[C@H](C(=O)N[C@@H](CCCCN)C(=O)N[C@H](C(=O)N[C@@H](CC(C)C)C(=O)N[C@@H](CC(C)C)C(N)=O)[C@@H](C)O)[C@@H](C)CC (Heptadecanoyl-GLLKRIKTLL-NH2)
MIC (Escherichia coli [13]): 2.34 µM (≈ 3.29 µg/mL)
MIC (Staphylococcus aureus [14]): 4.67 µM (≈ 6.57 µg/mL)

CC[C@H](C)[C@H](NC(=O)[C@H](CCCNC(=N)N)NC(=O)[C@H](CCCCN)NC(=O)[C@@H](CC(C)C)NC(=O)[C@H](CC(C)C)NC(=O)CNC(C)=O)C(=O)N[C@@H](CCCCN)C(=O)N[C@H](C(=O)N[C@H](CC(C)C)C(=O)N[C@H](CC(C)C)C(=O)NC(Cc1cn(CCCC[C@H](NC(C)=O)C(=O)NCC(=O)N[C@@H](CC(C)C)C(=O)N[C@@H](CC(C)C)C(=O)N[C@H](CCCCN)C(=O)N[C@@H](CCCNC(=N)N)C(=O)N[C@H](C(=O)N[C@H](CCCCN)C(=O)N[C@H](C(=O)N[C@@H](CC(C)C)C(=O)N[C@@H](CC(C)C)C(N)=O)[C@@H](C)O)[C@@H](C)CC)nn1)C(N)=O)[C@@H](C)O (stereo not given in full)
MIC (Klebsiella pneumoniae): 8 µM (≈ 21.1 µg/mL)
MIC (Pseudomonas aeruginosa [1]): 16 µM (≈ 42.2 µg/mL)
MIC (Bacillus subtilis): 2 µM (≈ 5.28 µg/mL)
MIC (Escherichia coli [2]): 4 µM (≈ 10.6 µg/mL)
MIC (Staphylococcus aureus [3]): 32 µM (≈ 84.5 µg/mL)
MIC (Acinetobacter baumannii): 2 µM (≈ 5.28 µg/mL)

CC[C@H](C)[C@H](NC(=O)[C@H](CCCNC(=N)N)NC(=O)[C@H](CCCCN)NC(=O)[C@H](CC(C)C)NC(=O)[C@H](CC(C)C)NC(=O)CN)C(=O)N[C@@H](CCCCN)C(=O)N[C@@H](CCCCN)C(=O)N[C@@H](CC(C)C)C(=O)N[C@@H](CC1CCCCC1)C(N)=O (H-GLLKRIKKL[Cha]-NH2)
MIC (Escherichia coli [7]): 9.5 µM (≈ 11.6 µg/mL)
MIC (Staphylococcus aureus [8]): 9.5 µM (≈ 11.6 µg/mL)
HC50 [9]: 12.4 µM
MIC (Enterococcus faecium [10]): 9.5 µM (≈ 11.6 µg/mL)
HC50 at 1 h [11]: 12.4 µM
MIC (Pseudomonas aeruginosa [12]): 4.6 µM (≈ 5.62 µg/mL)

CC(C)C[C@H](NC(=O)[C@H](CC(C)C)NC(=O)[C@H](CCCCN)NC(=O)[C@H](CCCCN)NC(=O)[C@H](Cc1ccc2ccccc2c1)NC(=O)[C@H](CCCNC(=N)N)NC(=O)[C@H](CCCCN)NC(=O)[C@H](CC(C)C)NC(=O)[C@H](CCCCN)NC(=O)CN)C(N)=O (H-GKLKR[2Nal]KKLL-NH2)
MIC (Escherichia coli [7]): 9.5 µM (≈ 12.2 µg/mL)
MIC (Staphylococcus aureus [8]): 41 µM (≈ 52.5 µg/mL)
HC50 [9]: 50.1 µM
MIC (Enterococcus faecium [10]): 13.7 µM (≈ 17.5 µg/mL)
HC50 at 1 h [11]: 50.1 µM
MIC (Pseudomonas aeruginosa [12]): 9.5 µM (≈ 12.2 µg/mL)
